From PubChem BioAssay (NCI)
Values joined by “and” are separate entries in the source; they are usually repeats but may differ in a detail not shown here. Equal values may be shown once.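 Growth conditions: 96-well plates. Treatment: test compound, 48 hours, 5 concentrations. Analysis: linear interpolation between bracketing concentrations; unreached endpoints set to highest concentration. Here, GI50 denotes the concentration required for 50% inhibition of growth. The concentration for full growth arrest is given as TGI.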

How the values were obtained:
Test in all cases: growth of human tumour cells (NCI), 48 h
[1] = system: MALME-3M melanoma
[2] = system: SK-MEL-5 melanoma
[3] = system: KM12 colon
[4] = system: CAKI-1 renal
[5] = system: BT-549 breast
[6] = system: UO-31 renal
[7] = system: T-47D breast
[8] = system: TK-10 renal
[9] = system: SF-268 CNS
[10] = system: OVCAR-4 ovarian

SMILES	GI50 [1]	TGI [1]	GI50 [2]	TGI [2]	GI50 [3]	TGI [3]	GI50 [4]	TGI [4]	TGI [5]	GI50 [6]	TGI [6]	TGI [7]	TGI [8]	TGI [9]	GI50 [10]	TGI [10]	GI50 [5]	GI50 [7]	GI50 [8]	GI50 [9]
C/C(=N\NC(=S)N1CCCCCC1)c1ccccn1	0.0966 µM	1.17 µM and 1.72 µM	0.0209 µM	1.09 µM and 0.741 µM	0.0688 µM	0.517 µM and 5.16 µM	< 0.0393 µM	5.45 µM and 10.4 µM	1.76 µM	0.134 µM	4.01 µM and 4.33 µM	8.43 µM and 7.58 µM	8.56 µM and 7.56 µM	4.19 µM	< 0.0412 µM	2.52 µM and 3.25 µM	–	–	–	–
Cn1c(=O)c(Oc2ccc(F)cc2)cc2cnc(NC3CCOCC3)nc21	> 25 µM	> 25 µM	> 25 µM	> 25 µM	> 25 µM	> 25 µM	> 25 µM	> 25 µM	> 25 µM	> 10.5 µM	> 18.6 µM	> 25 µM	> 25 µM	> 25 µM	> 25 µM	> 25 µM	> 25 µM	22.2 µM	> 25 µM	> 25 µM
O=c1[nH]c2ccc(O)cc2o1	–	> 100 µM	–	> 100 µM	–	> 100 µM	–	> 100 µM	> 100 µM	–	> 100 µM	> 100 µM	> 100 µM	> 100 µM	–	> 100 µM	–	–	–	–
COC(=O)c1cc2c(s1)-c1nccc3c1c(nc1ccccc13)C2=O	16.4 µM	59.5 µM	33.8 µM	> 100 µM	69.4 µM	> 100 µM	> 100 µM	> 100 µM	> 100 µM	> 100 µM	> 100 µM	> 100 µM	> 100 µM	> 100 µM	> 100 µM	> 100 µM	> 100 µM	62.8 µM	> 100 µM	29.1 µM
COc1ccccc1Nc1ncc(-c2ccccc2)o1	> 25 µM	> 25 µM	> 25 µM	> 25 µM	9.77 µM	> 25 µM	> 24 µM	> 25 µM	> 25 µM	13.7 µM	> 25 µM	> 25 µM	> 25 µM	> 25 µM	> 25 µM	> 25 µM	> 25 µM	> 25 µM	> 25 µM	> 25 µM
COC(=O)c1ccc(-c2c(C#N)[n+](=O)c3cc(Cl)c(Cl)cc3n2[O-])cc1	20 µM	44.3 µM	22 µM	47.7 µM	20.9 µM	51.3 µM	18.9 µM	35.4 µM	34 µM	26.3 µM	67.3 µM	6.08 µM	95.1 µM	32.1 µM	19.7 µM	38 µM	16.8 µM	2.48 µM	33.6 µM	16.4 µM
CC12CCC3c4ccc(O)cc4CCC3C1C/C(=N\O)C2O (centres undefined)	–	> 100 µM	–	> 100 µM	–	> 100 µM	–	> 100 µM	> 100 µM	–	> 100 µM	> 100 µM	> 100 µM	> 100 µM	–	> 100 µM	–	–	–	–
CN(C)C(=S)Sc1ccc([N+](=O)[O-])cc1[N+](=O)[O-]	1.38 µM	3.17 µM	1.73 µM	5.82 µM	2.81 µM	12.7 µM	1.58 µM	4.79 µM	9.93 µM	1.79 µM	6.29 µM	3.75 µM	5.85 µM	15.4 µM	1.61 µM	13.9 µM	3.22 µM	1.56 µM	2.29 µM	3.32 µM
Nc1ccn(C2OC(CO)C(O)C2O)c(=O)n1 (centres undefined)	0.0741 µM	–	2.89 µM	–	–	> 500 µM	0.107 µM	–	> 500 µM	0.715 µM	–	> 500 µM	> 500 µM	> 500 µM	–	> 500 µM	7.08 µM	4.2 µM	–	1.01 µM
